Legend:
[1] = Relative Exposure (RE10/2/72h): ratio of AUC immersion to AUC IY microinjection; format: in vivo, zebrafish (Danio rerio)
Protocol: We then assessed by non-compartmental analysis the area from 0.25 to 72 h post exposure under the concentration–time curve (AUC0.25–72h) (Table 1) that represents well the relative tissue exposure to fluorescent compound across time. These absolute fluorescence intensities however cannot be comscriptpared across compounds as they depend critically on the respective quantum yields of the compounds and the device settings. To be able to compare the PK behavior of the compounds following different administration routes, we calculated the fluorescence-independent pharmacokinetic parameter Relative Exposure (RE10/2/72h), i.e., the ratio of AUC0.25–72h immersion (10 µM) to AUC0.25–72h IY microinjection (2 mg/kg). Separate RE values were calculated based on the whole body (WB), rest-of-body (RoB) and yolk fluorescence measurements (Table 2).
(§1) In order to determine the degree of tissue exposure following administration of the fluorescent compounds, we calculated the AUC as the pharmacokinetic parameter of the non-compartmental analysis. The area under a plot of the fluorescence intensity (RFUT) versus time is referred to as the area under the (zero moment) curve AUC. RFUT represents the relative amount of compound present in the ZFE by measuring the integrated fluorescence intensity of delineated contours in fluorescence images (Figure 2). The AUC was then determined by summing the incremental area of subsequent trapezoids. […] In some cases, observations were censored and excluded from the analysis, due to possible fluorescence quenching effect of compounds that remains at the site of the intrayolk microinjection.
We further calculated the Relative Exposure (RE10/2) by comparing the […] after IY microinjection (2 mg/kg), as defined in Equation (2): (2) RE10/2/h=AUCImm/AUCInj.

[2] = set-up: method as in PMID 34108572; conditions: experimentally determined before; cited from earlier work
[3] = Immersion of two-cell stage zebrafish embryos (10 µM), spatiotemporal fluorescence imaging and non-compartmental AUC; format: in vivo, zebrafish (Danio rerio); conditions: immersion 10 µM; for intrabody accumulation on longer incubations: 24–72 h; for AUC-RoB IMM (AUC0.25–72h): rest of body (non-yolk); for AUC-RoB IMM (AUC0.25–72h) / AUC-WB IMM (AUC0.25–72h) / AUC-Yolk IMM (AUC0.25–72h): 0.25 to 72 h; for AUC-WB IMM (AUC0.25–72h): whole body
Protocol: Immersion treatment: zebrafish embryos at the two-cell stage were immersed in Danieau’s medium containing the compound. A compound concentration of 10 µM and DMSO concentration of 0.1% (v/v) in a volume of 5 mL was used per well (6-well-plates). At 72 h, the zebrafish medium containing the compound was removed, and the animals rinsed 3 × with Danieau’s medium. Next, the embryos were kept for another 48 h in Danieau’s medium supplemented with DMSO (0.1%, v/v) in the absence of compound. In the case of control experiments, the embryos were exposed to Danieau’s medium supplemented with DMSO (0.1%, v/v).
Animals were kept in dark conditions in an incubator at 28.5 °C for defined time-periods (0.25, 1, 3, 6, 24, 48, 72, 96, and 120 h) before image analysis in a dark room. To acquire images, a Leica MZ10F fluorescent stereomicroscope (Leica Microsystems Inc., Buffalo Grove, IL, USA) with a 4.0× planapochromatic objective (10447243) was used, equipped with a Digital Color Camera Leica DFC310 FX (Software LAS 4.13, Leica Microsystems Inc., Buffalo Grove, IL, USA). Filter sets were GFP 10446222 in the case of compound FAMA, dSRED 10447079 in the cases of S-CY3A, CY3A and TAMRA, and CY5 10446366 in the cases of S-CY5.5A and S-CY5A. Previous to fluorescence imaging, the embryos were dechorionated (up to 72 hpf) and immobilized by hypothermia, rinsed three times with Danieau’s medium, and positioned latero-lateral (right lateral recumbency) on a single cavity glass slide and covered by a drop of agarose (0.1%). Then, using MetaMorph (Microscopy Automation and Image Analysis Software V.7.8.00, Molecular Devices, LLC., San Jose, CA, USA) and by manual delineation of the whole-body (WB) (up to 120 h) and yolk sac contours (up to 72 h) of the zebrafish embryos the fluorescence in the selected area was quantified as integrated fluorescence intensity (RFU). The RFU values of the non-yolk compartment (i.e., RoB: rest of body) was assessed by subtracting the yolk results from the corresponding integrated fluorescence intensities found in the WB.
as §1

[4] = Intrayolk (IY) microinjection of two-cell stage zebrafish embryos (2 mg/kg), spatiotemporal fluorescence imaging and non-compartmental AUC; format: in vivo, zebrafish (Danio rerio); conditions: for accumulation in the gastrointestinal system / localization of the dye after IY microinjection: IY microinjection 2 mg/kg; for accumulation in the gastrointestinal system: after 96 hpf; for RD (IY), Relative Distribution: ratio of AUCRoB to AUCWB after microinjection into the yolk (2 mg/kg), 0.25–72 h; for localization of the dye after IY microinjection: first hours post injection
Description: Intrayolk microinjection (IY): zebrafish embryos at the two-cell stage were positioned in a Petri dish at room temperature. […] Needles were filled with compounds dissolved in the vehicle (DMSO/saline (1:1)), placed under the microscope, and using forceps, the tip was cut off in a manner to allow for a consistent volume to be injected. Afterwards, the embryos were transferred to 6-well plates. Control embryos were exposed to vehicle only. […] Previous to fluorescence imaging, the embryos were dechorionated (up to 72 hpf) and immobilized by hypothermia, rinsed three times with Danieau's medium, and positioned latero-lateral (right lateral recumbency) on a single cavity glass slide and covered by a drop of agarose (0.1%). Then, using MetaMorph (Microscopy Automation and Image Analysis Software V.7.8.00, Molecular Devices, LLC., San Jose, CA, USA) and by manual delineation of the whole-body (WB) (up to 120 h) and yolk sac contours (up to 72 h) of the zebrafish embryos the fluorescence in the selected area was quantified as integrated fluorescence intensity (RFU). The RFU values of the non-yolk compartment (i.e., RoB: rest of body) was assessed by subtracting the yolk results from the corresponding integrated fluorescence intensities found in the WB. In order to determine the degree of tissue exposure following administration of the fluorescent compounds, we calculated the AUC as the pharmacokinetic parameter of the non-compartmental analysis. The area under a plot of the fluorescence intensity (RFUT) versus time is referred to as the area under the (zero moment) curve AUC. RFUT represents the relative amount of compound present in the ZFE by measuring the integrated fluorescence intensity of delineated contours in fluorescence images (Figure 2). The AUC was then determined by summing the incremental area of subsequent trapezoids.

[5] = rest of body (non-yolk), intrayolk microinjection 2 mg/kg, 0.25 to 72 h
[6] = whole body, intrayolk microinjection 2 mg/kg, 0.25 to 72 h
[7] = yolk, intrayolk microinjection 2 mg/kg, 0.25 to 72 h

| Compound | RE-RoB (Relative Exposure RE-RoB10/2/72h) ([1]; rest of body, AUC0.25–72h immersion (10 µM) / AUC0.25–72h IY microinjection (2 mg/kg)) | RE-WB (Relative Exposure RE-WB10/2/72h) ([1]; whole body, AUC0.25–72h immersion (10 µM) / AUC0.25–72h IY microinjection (2 mg/kg)) | RE-Yolk (Relative Exposure RE-Yolk10/2/72h) ([1]; yolk, AUC0.25–72h immersion (10 µM) / AUC0.25–72h IY microinjection (2 mg/kg)) | Log D [2] | intrabody accumulation on longer incubations [3] | AUC-RoB IMM (AUC0.25–72h) [3] [RFU × 10^7] | AUC-WB IMM (AUC0.25–72h) [3] [RFU × 10^7] | AUC-Yolk IMM (AUC0.25–72h) [3] [RFU × 10^7] | accumulation in the gastrointestinal system [4] | RD (IY), Relative Distribution [4] | AUC-RoB IY (AUC0.25–72h) [4, 5] [RFU × 10^7] | AUC-WB IY (AUC0.25–72h) [4, 6] [RFU × 10^7] | AUC-Yolk IY (AUC0.25–72h) [4, 7] [RFU × 10^7] | RE-WB (Relative Exposure RE-WB10/2/72h) ([1]; zebrafish, in vivo) | intrabody accumulation after one hour of immersion followed by dechorionation ([3]; 1 h, dechorionated and rinsed) | localization of the dye after IY microinjection [4] | AUC-RoB IY (AUC0.25–72h) ([4]; zebrafish, in vivo, 2 mg/kg) [RFU × 10^7] | AUC-WB IY (AUC0.25–72h) ([4]; zebrafish, in vivo, 2 mg/kg) [RFU × 10^7] | AUC-Yolk IY (AUC0.25–72h) ([4]; zebrafish, in vivo, 2 mg/kg) [RFU × 10^7] |
| --- | --- | --- | --- | --- | --- | --- | --- | --- | --- | --- | --- | --- | --- | --- | --- | --- | --- | --- | --- |
| C#CCNC(=O)c1ccc(-c2c3ccc(=[N+](C)C)cc-3oc3cc(N(C)C)ccc23)c(C(=O)[O-])c1 (single isomer, unassigned) [TAMRA] | 0.25 | 0.19 | 0.17 | 0.46 | further intrabody accumulation | 2.78 | 7.76 | 4.98 | accumulation | 0.28 | 11.2 | 40.4 | 29.1 | – | – | – | – | – | – |
| C#CCNC(=O)CCCCCN1C(=CC=CC2=[N+](C)c3ccccc3C2(C)C)C(C)(C)c2ccccc21.[Cl-] [CY3A, Cyanine 3] | – | – | – | 1.73 | further intrabody accumulation | 6.41 | 20.9 | 14.6 | accumulation | 0.17 | 3.21 | 18.9 | 15.7 | 1.11 | fast intrabody accumulation | – | – | – | – |
| C#CCNC(=O)c1ccc2c(c1)C(=O)OC21c2ccc(O)cc2Oc2cc(O)ccc21 [FAMA, Fam A, 5-Isomer] | – | – | – | −0.14 | – | 0.84 | 1.17 | 0.36 | accumulation | 0.32 | 6.93 | – | 14.9 | 0.05 | – | – | – | – | – |
| C#CCNC(=O)CCCCCN1C(=CC=CC2=[N+](C)c3ccc(S(=O)(=O)[O-])cc3C2(C)C)C(C)(C)c2cc(S(=O)(=O)[O-])ccc21.[K+] [S-CY3A, S-Cyanine 3] | – | – | – | −1.96 | – | 2.67 | 4.56 | 1.89 | accumulation | 0.24 | 7.65 | 31.4 | 23.8 | 0.15 | – | stayed localized to the microinjection site | – | – | – |
| C#CCNC(=O)CCCCC[N+]1=C(C=CC=CC=C2N(C)c3ccc4c(S(=O)(=O)[O-])cc(S(=O)(=O)[O-])cc4c3C2(C)C)C(C)(C)c2c1ccc1c(S(=O)(=O)[O-])cc(S(=O)(=O)[O-])cc21.[K+].[K+].[K+] [S-CY5.5A, S-Cyanine 5.5] | – | – | – | −1.68 | – | 0 | 0 | 0 | – | 0.19 | 1.02 | 5.45 | 4.42 | 0 | – | stayed localized to the microinjection site | – | – | – |
| Rhodamine 6g 6-Isomer [Compound R6GA] | – | – | – | 1.07 | – | – | – | – | – | – | – | – | – | 0.10 | – | – | 1.48 | 5.76 | 4.29 |
| S-Cyanine 5A [S-CY5A] | – | – | – | −0.72 | – | 0 | 0 | 0 | – | 0.18 | 1.67 | 9.49 | 7.82 | 0 | – | stayed localized to the microinjection site | – | – | – |

Reference: PMC8234359, “Pharmacokinetics in Zebrafish Embryos (ZFE) Following Immersion and Intrayolk Administration: A Fluorescence-Based Analysis” (Pharmaceuticals, 2021)
